Biological target: USP19 (Homo sapiens (Human), UniProt O94966)
Experiment: USP19 activity assay (fluorescence polarisation, Ubiquitin-Lys-TAMRA substrate)
Assay type: biochemical
Settings: full-length USP19 2.5 nM, 30 min pre-incubation, Ub substrate 500 nM; average of at least two duplicate experiments

Chain of USP19 (O94966 whole entry): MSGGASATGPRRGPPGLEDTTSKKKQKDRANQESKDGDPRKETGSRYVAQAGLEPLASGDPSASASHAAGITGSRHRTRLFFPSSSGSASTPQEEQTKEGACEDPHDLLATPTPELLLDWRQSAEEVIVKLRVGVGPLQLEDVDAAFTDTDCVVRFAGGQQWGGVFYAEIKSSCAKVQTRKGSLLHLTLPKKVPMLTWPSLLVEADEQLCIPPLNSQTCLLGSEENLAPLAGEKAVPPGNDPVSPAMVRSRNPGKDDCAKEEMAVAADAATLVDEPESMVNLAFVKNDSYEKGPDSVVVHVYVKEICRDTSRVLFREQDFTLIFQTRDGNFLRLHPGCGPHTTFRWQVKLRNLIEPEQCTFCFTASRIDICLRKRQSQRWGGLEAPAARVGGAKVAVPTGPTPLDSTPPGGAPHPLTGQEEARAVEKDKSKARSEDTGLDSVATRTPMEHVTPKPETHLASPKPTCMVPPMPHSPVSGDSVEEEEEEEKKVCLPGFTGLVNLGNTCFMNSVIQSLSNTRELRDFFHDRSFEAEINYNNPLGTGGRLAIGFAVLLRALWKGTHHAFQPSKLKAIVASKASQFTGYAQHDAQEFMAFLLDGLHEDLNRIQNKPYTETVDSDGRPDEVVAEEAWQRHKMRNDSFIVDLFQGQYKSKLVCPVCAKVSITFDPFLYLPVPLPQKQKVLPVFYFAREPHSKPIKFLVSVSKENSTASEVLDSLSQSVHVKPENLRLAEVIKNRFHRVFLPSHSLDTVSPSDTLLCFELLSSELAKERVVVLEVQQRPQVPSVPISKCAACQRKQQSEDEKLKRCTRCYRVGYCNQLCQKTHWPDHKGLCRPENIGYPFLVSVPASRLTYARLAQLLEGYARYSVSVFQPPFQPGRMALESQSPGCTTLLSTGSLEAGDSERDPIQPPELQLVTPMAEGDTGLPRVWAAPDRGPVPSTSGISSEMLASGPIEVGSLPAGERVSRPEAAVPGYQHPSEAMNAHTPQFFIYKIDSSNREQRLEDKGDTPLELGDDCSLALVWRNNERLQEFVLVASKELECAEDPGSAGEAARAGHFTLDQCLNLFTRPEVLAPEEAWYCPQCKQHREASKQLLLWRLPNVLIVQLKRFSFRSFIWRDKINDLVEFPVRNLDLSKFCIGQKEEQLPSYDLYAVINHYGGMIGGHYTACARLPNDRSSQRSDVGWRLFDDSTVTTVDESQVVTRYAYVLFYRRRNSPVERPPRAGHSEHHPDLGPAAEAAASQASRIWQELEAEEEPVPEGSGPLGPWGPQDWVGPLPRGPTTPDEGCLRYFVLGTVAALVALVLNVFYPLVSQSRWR

| SMILES | IC50 |
| --- | --- |
| C[C@H](CC(=O)N1CCC(O)(Cn2cnc(-c3cccc(C4OCCO4)c3)cc2=O)CC1)c1ccccc1 [Example 21, (R)-6-(3-(1,3-Dioxolan-2-yl)phenyl)-3-((4-hydroxy-1-(3-phenylbutanoyl)piperidin-4-yl)methyl)pyrimidin-4(3H)-one] | 5 to 50 µM |
| C=C(C)c1cc(=O)n(CC2(O)CCN(C(=O)C[C@@H](C)c3ccccc3)CC2)cn1 [Example 29, (R)-3-((4-Hydroxy-1-(3-phenylbutanoyl)piperidin-4-yl)methyl)-6-(prop-1-en-2-yl)pyrimidin-4(3H)-one] | 50 to 250 µM |
| C[C@H](CC1CCCCC1)C(=O)N1CCC(O)(Cn2cc(-c3cccc(CN)c3)c(-c3ccccc3F)cc2=O)CC1 [Example 52, (R)-5-(3-(Aminomethyl)phenyl)-1-((1-(3-cyclohexyl-2-methylpropanoyl)-4-hydroxypiperidin-4-yl)methyl)-4-(2-fluorophenyl)pyridin-2(1H)-one] | 0.5 to 5 µM |
| C[C@H](CC(=O)N1CCC(O)(Cn2cc(-c3ccccc3C#N)c(-c3ccccc3)cc2=O)CC1)c1ccccc1 [Example 106, (R)-2-(1-((4-Hydroxy-1-(3-phenylbutanoyl)piperidin-4-yl)methyl)-6-oxo-4-phenyl-1,6-dihydropyridin-3-yl)benzonitrile] | 5 to 50 µM |
| C[C@H](CC1CCCCC1)C(=O)N1CCC(O)(Cn2cc(C(=O)N3CCCCC3)c(-c3ccccc3)cc2=O)CC1 [Example 36, (R)-1-((1-(3-Cyclohexyl-2-methylpropanoyl)-4-hydroxypiperidin-4-yl)methyl)-4-phenyl-5-(piperidine-1-carbonyl)pyridin-2(1H)-one] | 0.5 to 5 µM |
| CCOC(=O)c1cn(CC2(O)CCN(C(=O)C[C@@H](C)c3ccccc3)CC2)c(=O)cc1-c1ccccc1 [Example 13, (R)-Ethyl 1-((4-hydroxy-1-(3-phenylbutanoyl)piperidin-4-yl)methyl)-6-oxo-4-phenyl-1,6-dihydropyridine-3-carboxylate] | 50 to 250 µM |
| C[C@H](CC(=O)N1CCC(O)(Cn2cc(C#N)c(-c3ccccc3)cc2=O)CC1)c1ccccc1 [Example 114, (R)-1-((4-Hydroxy-1-(3-phenylbutanoyl)piperidin-4-yl)methyl)-6-oxo-4-phenyl-1,6-dihydropyridine-3-carbonitrile] | 5 to 50 µM |
| CC(C)N(C)C(=O)c1cn(CC2(O)CCN(C(=O)[C@H](C)CC3CCCCC3)CC2)c(=O)cc1-c1ccccc1 [Example 87, (R)-1-((1-(3-Cyclohexyl-2-methylpropanoyl)-4-hydroxypiperidin-4-yl)methyl)-N-isopropyl-N-methyl-6-oxo-4-phenyl-1,6-dihydropyridine-3-carboxamide] | 0.5 to 5 µM |
| O=C(C[C@H](c1ccccc1)C(F)(F)F)N1CCC(O)(Cn2cnc(-c3ccccc3F)cc2=O)CC1 [Example 48, (R)-6-(2-Fluorophenyl)-3-((4-hydroxy-1-(4,4,4-trifluoro-3-phenylbutanoyl)piperidin-4-yl)methyl)pyrimidin-4(3H)-one] | 50 to 250 µM |
| C[C@H](CC(=O)N1CCC(O)(Cn2cc(C(=O)N3CCC(O)CC3)c(-c3ccccc3)cc2=O)CC1)c1ccccc1 [Example 62, (R)-1-((4-Hydroxy-1-(3-phenylbutanoyl)piperidin-4-yl)methyl)-5-(4-hydroxypiperidine-1-carbonyl)-4-phenylpyridin-2(1H)-one] | 0.5 to 5 µM |
| C=C(C)c1cc(=O)n(CC2(O)CCN(C(=O)C[C@@H](C)c3ccccc3)CC2)cc1-c1ccccc1 [Example 12, (R)-1-((4-Hydroxy-1-(3-phenylbutanoyl)piperidin-4-yl)methyl)-5-phenyl-4-(prop-1-en-2-yl)pyridine-2(1H)-one] | 5 to 50 µM |
| CC(C)N(C)C(=O)c1cn(CC2(O)CCN(C(=O)C[C@@H](C)c3ccccc3)CC2)c(=O)cc1-c1ccccc1C#N [Example 38, (R)-4-(2-Cyanophenyl)-1-((4-hydroxy-1-(3-phenylbutanoyl)piperidin-4-yl)methyl)-N-isopropyl-N-methyl-6-oxo-1,6-dihydropyridine-3-carboxamide] | 50 to 250 µM |
| CC(=O)Nc1cccc(-c2cn(CC3(O)CCN(C(=O)C[C@@H](C)c4ccccc4)CC3)c(=O)cc2-c2ccccc2)c1 [Example 6, (R)—N-(3-(1-((4-Hydroxy-1-(3-phenylbutanoyl)piperidin-4-yl)methyl)-6-oxo-4-phenyl-1,6-dihydropyridin-3-yl)phenyl)acetamide] | 5 to 50 µM |
| CC(C)C(CC1CCCCC1)C(=O)N1CCC(O)(Cn2cnc(-c3ccccc3F)cc2=O)C(C)(C)C1 (stereo not shown) [Example 25, 3-((1-(2-(Cyclohexylmethyl)-3-methylbutanoyl)-4-hydroxy-3,3-dimethylpiperidin-4-yl)methyl)-6-(2-fluorophenyl)pyrimidin-4(3H)-one] | 0.5 to 5 µM |

Further lines, results first:

| IC50 | SMILES |
| --- | --- |
| 0.5 to 5 µM | C[C@H](CC1CCCCC1)C(=O)N1CCC(O)(Cn2cc(C(=O)N(C)C)ccc2=O)C2(CCCC2)C1 (stereo partly drawn) [Example 127, 1-((7-((R)-3-Cyclohexyl-2-methylpropanoyl)-10-hydroxy-7-azaspiro[4.5]decan-10-yl)methyl)-N,N-dimethyl-6-oxo-1,6-dihydropyridine-3-carboxamide] |
| 0.5 to 5 µM | CN(C)C(=O)c1cn(CC2(O)CCN(C(=O)c3c[nH]nc3C3CCCCC3)CC23CCCC3)c(=O)cc1-c1ccccc1 (stereo not shown) [Example 189, 1-((7-(3-Cyclohexyl-1H-pyrazole-4-carbonyl)-10-hydroxy-7-azaspiro[4.5]decan-10-yl)methyl)-N,N-dimethyl-6-oxo-4-phenyl-1,6-dihydropyridine-3-carboxamide] |
| < 0.5 µM | C[C@H](CC1CCCCC1)C(=O)N1CCC(O)(Cn2cc(C(=O)N3CCN(C)CC3)c(-c3ccccc3)cc2=O)C(C)(C)C1 (stereo partly drawn) [Example 170, 1-((1-((R)-3-Cyclohexyl-2-methylpropanoyl)-4-hydroxy-3,3-dimethylpiperidin-4-yl)methyl)-5-(4-methylpiperazine-1-carbonyl)-4-phenylpyridin-2(1H)-one] |
| 5 to 50 µM | C[C@H](CC1CCCCC1)C(=O)N1CC[C@](O)(Cn2cc(C(=O)N(C)C)c(-c3ccccc3)cc2=O)C2(CCCC2)C1 [Example 209, 1-(((R)-7-((R)-3-Cyclohexyl-2-methylpropanoyl)-10-hydroxy-7-azaspiro[4.5]decan-10-yl)methyl)-N,N-dimethyl-6-oxo-4-phenyl-1,6-dihydropyridine-3-carboxamide] |
| 0.5 to 5 µM | C[C@H](CC(F)(F)F)C(=O)N1CC[C@@](O)(Cn2cc(C(=O)N(C)C)c(-c3ccccc3)cc2=O)C(C)(C)C1 [Example 204, 1-(((S)-4-Hydroxy-3,3-dimethyl-1-((R)-4,4,4-trifluoro-2-methylbutanoyl)piperidin-4-yl)methyl)-N,N-dimethyl-6-oxo-4-phenyl-1,6-dihydropyridine-3-carboxamide] |
| 0.5 to 5 µM | C[C@H](CC(=O)N1CCC(O)(Cn2cc(C(=O)N(C)C)c(-c3ccccc3)cc2=O)C2(CCCC2)C1)c1ccccc1 (stereo partly drawn) [Example 185, 1-((10-Hydroxy-7-((R)-3-phenylbutanoyl)-7-azaspiro[4.5]decan-10-yl)methyl)-N,N-dimethyl-6-oxo-4-phenyl-1,6-dihydropyridine-3-carboxamide] |
| 50 to 250 µM | CC(CC(C)(C)C)C(=O)N1CCC(O)(Cn2cnc(-c3ccccc3F)cc2=O)C(C)(C)C1 (stereo not shown) [Example 142, 6-(2-Fluorophenyl)-3-((4-hydroxy-3,3-dimethyl-1-(2,4,4-trimethylpentanoyl)piperidin-4-yl)methyl)pyrimidin-4(3H)-one] |
| 50 to 250 µM | CN(C)C(=O)c1cn(CC2(O)CCN(C(=O)C34CCC(CC3)C4)CC23CCCC3)c(=O)cc1-c1ccccc1 (stereo not shown) [Example 179, 1-((7-(Bicyclo[2.2.1]heptane-1-carbonyl)-10-hydroxy-7-azaspiro[4.5]decan-10-yl)methyl)-N,N-dimethyl-6-oxo-4-phenyl-1,6-dihydropyridine-3-carboxamide] |
| 0.5 to 5 µM | O=C(c1cn(C[C@]2(O)CCN(C(=O)C(CC(F)(F)F)CC(F)(F)F)CC23CCCC3)c(=O)cc1-c1ccccc1)N1CCNCC1 [Example 219, (S)-1-((10-Hydroxy-7-(4,4,4-trifluoro-2-(2,2,2-trifluoroethyl)butanoyl)-7-azaspiro[4.5]decan-10-yl)methyl)-4-phenyl-5-(piperazine-1-carbonyl)pyridin-2(1H)-one] |
| < 0.5 µM | C[C@H](CC1CCCCC1)C(=O)N1CCC(O)(Cn2cnc(-c3ccccc3F)cc2=O)C2(CCCC2)C1 (stereo partly drawn) [Example 119, 3-((7-((R)-3-Cyclohexyl-2-methylpropanoyl)-10-hydroxy-7-azaspiro[4.5]decan-10-yl)methyl)-6-(2-fluorophenyl)pyrimidin-4(3H)-one] |
| < 0.5 µM | CC(=O)N1CCN(C(=O)c2cn(CC3(O)CCN(C(=O)[C@H](C)CC4CCCCC4)CC3(C)C)c(=O)cc2-c2ccccc2)CC1 (stereo partly drawn) [Example 169, 5-(4-Acetylpiperazine-1-carbonyl)-1-((1-((R)-3-cyclohexyl-2-methylpropanoyl)-4-hydroxy-3,3-dimethylpiperidin-4-yl)methyl)-4-phenylpyridin-2(1H)-one] |
| < 0.5 µM | C[C@H](CC1CCCCC1)C(=O)N1CCC(O)(Cn2cc(C(=O)N(C)C)c(N(C)C)cc2=O)C2(CCCC2)C1 (stereo partly drawn) [Example 145, 1-((7-((R)-3-Cyclohexyl-2-methylpropanoyl)-10-hydroxy-7-azaspiro[4.5]decan-10-yl)methyl)-4-(dimethylamino)-N,N-dimethyl-6-oxo-1,6-dihydropyridine-3-carboxamide] |
| < 0.5 µM | CN(C)C(=O)c1cn(C[C@]2(O)CCN(C(=O)[C@H](CO)CC(F)(F)F)CC23CCCC3)c(=O)cc1-c1ccccc1 [Example 247, 1-(((S)-10-Hydroxy-7-((S)-4,4,4-trifluoro-2-(hydroxymethyl)butanoyl)-7-azaspiro[4.5]decan-10-yl)methyl)-N,N-dimethyl-6-oxo-4-phenyl-1,6-dihydropyridine-3-carboxamide] |
| 0.5 to 5 µM | C[C@H](CC1CCCCC1)C(=O)N1CC[C@@](O)(Cn2cc(C(=O)N(C)C)c(C3CC3)cc2=O)C(C)(C)C1 [Example 220, 1-(((S)-1-((R)-3-Cyclohexyl-2-methylpropanoyl)-4-hydroxy-3,3-dimethylpiperidin-4-yl)methyl)-4-cyclopropyl-N,N-dimethyl-6-oxo-1,6-dihydropyridine-3-carboxamide] |

Source: patent US11053213B2, “Pharmaceutical compounds” (ALMAC DISCOVERY LIMITED, priority 2016, dated 2021)
